Results: patent US20260306524A1, “Guanidinylated Amphiphilic Tobramycin Derivates and B-Lactam/B-Lactamase Inhibitor Combinations for Treatment of Pseudomonas Aeruginosa Infections” (University of Manitoba, priority 2023, published 2026)
Where two headings read alike, the source gives them in different places.

Legend:
HEK293 cells = experiment: Cell viability (cytotoxicity) assay, HEK293; type: cell-based, human; conditions: for cell viability compared to non-guanidinylated counterpart: HEK293, higher concentrations; for cell viability compared to 1: HEK293, up to 600 μM
Protocol: (§1) As an initial screening of the toxicity, the cell viability of the tobramycin derivatives was assessed in human embryonic kidney (HEK) 293 cell lines. Polymyxin B was utilized as […] and by being a membrane permeabilizing amphiphile resembling the tobramycin derivatives.
(§2) The cytotoxicity assay was conducted as previously described (24, 30). HEK293 cells were cultured in flasks with Dulbecco's Modified Eagle's Medium (DMEM) supplemented with 10% fetal bovine serum. The cells were incubated at 5% CO2 in a humidified atmosphere at 37° C. 50 μL of media containing approximately 8000 cells were added to designated wells in a 96-well plate. The wells containing only media with no cells served as blanks. The plate was incubated for 24 h. A volume of 50 μL of doubled the final desired concentrations of the agent were subsequently added to the experimental and blank wells. After 48 h incubation, PrestoBlue reagent from Invitrogen (United States) was added to a final concentration of 10% (v/v) and plates were incubated for an additional 1 hour at 5% CO2. Fluorescence was measured with excitation and emission wavelengths of 560 and 590 nm, respectively, using the Molecular Devices (United States) SpectraMax M2 plate reader. Values from the blank wells were subtracted from the corresponding wells with cells. The cell viability relative to the controls with vehicle was calculated. The plots indicate the mean±standard deviation of two experiments with five samples each.

[1] = Cell viability (cytotoxicity) assay, HEK293; type: cell-based, human; conditions: human, hek293 cells
Protocol: as §1, §2

P. aeruginosa PAO1 [2] = experiment: Checkerboard synergy with β-lactam antibiotics, PAO1; type: cell-based, Pseudomonas aeruginosa; conditions: for active concentration: equivalent to 6 μM
Protocol: After establishing the MIC of the tobramycin derivatives, the ability of these adjuvants to synergize with BL antibiotics was investigated against P. aeruginosa PAO1. The checkerboard assays were conducted as previously described and in accordance with the CLSI guidelines (37). Synergy was defined by at least a 4-fold reduction in the MICs of both adjuvant and antibiotic. The panel of antibiotics are comprised of commonly used antipseudomonal agents and represent the different BL subclasses—cephalosporin (ceftazidime), monobactam (aztreonam), penicillin (piperacillin) and carbapenems (imipenem and meropenem) (12).
The checkerboard assay was conducted as previously described (61). The bacterial solution was prepared as described in the broth microdilution method. The antibiotic of interest was serially diluted two-fold along the x-axis, and the adjuvant is serially diluted two-fold along the y-axis in a 96-well plate. Equal volumes of bacterial solution were added to the designated wells. The first row and columns are used to verify the MIC of the antibiotic and adjuvant, respectively. The well containing only broth served as negative control, while the well containing the broth and bacterial solution served as positive control. The plate was then incubated at 37° C. for 18 hours. After incubation, Molecular Devices (United States) Emax Plus microplate reader was used to measure the OD at a wavelength of 590 nm. Synergy was determined by at least a 4-fold reduction of the MIC of both agents.

[3] = tested on: MDR clinical isolates of P. aeruginosa; experiment: MIC against MDR clinical isolates; type: cell-based; conditions: Pseudomonas aeruginosa, 18 h; all MDR strains tested, alone
Protocol: The synergism of the guanidinylated amphiphilic tobramycin derivatives with ceftazidime, aztreonam and piperacillin against PAO1 prompted further investigation against MDR clinical isolates of P. aeruginosa. Prior to the checkerboard assays, the MICs of 5 and 8 were determined to be >128 μg/mL against all strains tested.
All antibiotics were purchased from commercial sources. Bacterial isolates were obtained from the American Type Culture Collection (ATCC), and from the Canadian National Intensive Care Unit (CAN-ICU) (59) and Canadian Ward (CANWARD) surveillance studies (60). CAN-ICU and CANWARD clinical isolates were collected from patients with presumed infectious diseases admitted in participating Canadian medical centers either to the intensive care unit or medical wards. Prior to microbiological testing, bacterial cultures were grown overnight in lysogeny broth (LB) at 37° C., shaking at 250 rpm.
(§3) The broth microdilution assay was performed in accordance with standard protocols as previously described (61). […] After incubation, Molecular Devices (United States) Emax Plus microplate reader was used to measure the optical density (OD) at a wavelength of 590 nm to confirm the turbidity. The minimum inhibitory concentration (MIC) was determined as the lowest concentration that inhibited visible bacterial growth.

P. aeruginosa PAO1 [4] = experiment: Potentiation of rifampicin, PAO1; type: cell-based, Pseudomonas aeruginosa
Source text: Another evidence of OM permeabilization is the ability of the guanidinylated amphiphilic tobramycin derivatives to synergize with membrane-impermeable antibiotics such as rifampicin. 5 and 8 potentiated rifampicin by 16- and 64-fold, respectively, against PAO1. Rifampicin has limited capacity in crossing the OM of Gram-negative bacteria, and is restricted to treating infections caused by Mycobacteria and Gram-positive cocci (48). Unlike the BL antibiotics that permeate the OM through a porin-mediated uptake, the large molecular weight and hydrophobicity of rifampicin make it unable to enter the narrow porins, and rely on slow passive diffusion to traverse the lipid bilayer (49). Therefore, the augmented potency of rifampicin against P. aeruginosa is linked to its increased intracellular concentration through OM destabilization.
(§4) The checkerboard assay was conducted as previously described (61). The bacterial solution was prepared as described in the broth microdilution method. The antibiotic of interest was serially diluted two-fold along the x-axis, and the adjuvant is serially diluted two-fold along the y-axis in a 96-well plate. Equal volumes of bacterial solution were added to the designated wells. […] After incubation, Molecular Devices (United States) Emax Plus microplate reader was used to measure the OD at a wavelength of 590 nm. […]

[5] = tested on: β-lactamase harboring P. aeruginosa isolates; experiment: Checkerboard dual and triple combinations, β-lactamase harboring isolates; type: cell-based, Pseudomonas aeruginosa; conditions: checkerboard assays
Source text: (§5) Since the main resistance mechanism against BL antibiotics is the hydrolysis by β-lactamase enzymes (46), it is imperative that the synergy evaluation is extended to P. aeruginosa strains containing these enzymes. Based on the results of the checkerboard assays against the MDR strains, the synergy of 5 and 8 with ceftazidime and aztreonam was further assessed against β-lactamase harboring P. aeruginosa isolates. These strains are characterized by their increased susceptibility to ceftazidime with the addition of avibactam. In addition, a triple combination therapy consisting of the tobramycin derivative, either BL antibiotic and avibactam was also investigated.
as §4, with “wells. The first row and columns are used to verify the MIC of the antibiotic and adjuvant, respectively.” for “wells.”

PA 86052 = experiment: Time-kill kinetics assay, PA 86052; type: cell-based, Pseudomonas aeruginosa
Protocol: (§6) To elucidate the mechanistic killing of the triple combination studies, the time-kill kinetics assay was performed as previously described (32). […] 8 μg/mL of ceftazidime and 2 μg/mL avibactam were used to reflect the clinically used 4:1 ratio.
(§7) Time-kill curve analyses were performed as previously described (32). An inoculum of the culture was then diluted in 0.85% saline solution to attain 0.5 McFarland turbidity. The inoculum was further diluted in lysogeny broth (LB) containing different antibiotic and adjuvant concentrations. The culture tubes were incubated at 37° C., shaking at 250 rpm. At specific time intervals, an aliquot was taken from each tube, serially diluted in sterile phosphate-buffered saline (PBS) and plated on LB agar plates. The plates were incubated at 37° C. overnight and the bacterial colonies were counted the subsequent day. The bactericidal or bacteriostatic activity was determined based on the decrease in CFU over the designated time period. Bactericidal activity corresponded to ≥3 log reduction in CFU/mL, while bacteriostatic activity corresponded to <3 log reduction in CFU/mL.

PA 107092 = experiment: Time-kill kinetics assay, PA 107092; type: cell-based, Pseudomonas aeruginosa
Protocol: as §6, §7

[6] = tested on: β-lactamase harboring P. aeruginosa isolates; experiment: MIC against β-lactamase harboring isolates; type: cell-based; conditions: Pseudomonas aeruginosa, 18 h
Source text: as §5
as §3, with “(61). An inoculum of the culture was diluted in 0.85% saline solution to attain 0.5 McFarland turbidity. The inoculum was further diluted in Mueller-Hinton broth (MHB) for inoculation to a final concentration of 5×10^5 colony forming units/mL (CFU/mL). The agents were serially diluted two-fold in CA-MHB in a 96-well plate.” for “(61).”

## N=C(N)NC[C@H]1O[C@H](O[C@H]2[C@H](O)[C@@H](O[C@H]3O[C@H](CO)[C@@H](O)[C@H](NC(=N)N)[C@H]3O)[C@H](NC(=N)N)C[C@@H]2NC(=N)N)[C@H](NC(=N)N)C[C@@H]1O [Compound 2, guanidinylated tobramycin, reference compound]
HEK293 cells
  cell viability compared to non-guanidinylated counterpart: slight decrease in the cell viability

## CCCCCCCCCCCCOC1C(OC2OC(CN)C(O)CC2N)C(N)CC(N)C1OC1OC(CO)C(O)C(N)C1O (stereo not shown) [Compound 3]
HEK293 cells; HEK293, at 600 μM, relative to tobramycin
  cytotoxicity: highly toxic relative to tobramycin, causing cell death at 600 μM

## CCCCCCCCOC1C(OC2OC(CN)C(O)CC2N)C(N)CC(N)C1OC1OC(CO)C(O)C(N)C1O (stereo not shown) [Compound 4, 5-O-(Octyl)-tobramycin]
[1]; HEK293, up to 600 μM
  viability at 48 h, 600 µM: 86 to 101%
HEK293 cells
  cell viability compared to 1: comparable to 1

## CCCCCCCCOC1C(OC2OC(CNC(=N)N)C(O)CC2NC(=N)N)C(NC(=N)N)CC(NC(=N)N)C1OC1OC(CO)C(O)C(NC(=N)N)C1O (stereo not shown) [Compound 5, 5-O-(Octyl)-guanidinotobramycin]
P. aeruginosa PAO1 [2]
  active concentration: ~ 8 μg/mL
[3]
  MIC: > 128 µg/mL
P. aeruginosa PAO1 [4]
  fold potentiation of rifampicin: 16 fold
[1]; HEK293, 600 μM
  viability at 48 h, 600 µM: 63.8%
HEK293 cells; HEK293, 600 μM
  cytotoxicity compared to PMB: comparable toxicity

## NCCCCCCCCOC1C(OC2OC(CN)C(O)CC2N)C(N)CC(N)C1OC1OC(CO)C(O)C(N)C1O (stereo not shown) [Compound 6, 5-O-(8-Aminooctyl)-tobramycin]
P. aeruginosa PAO1 [2]; PAO1, 8 μg/mL of adjuvant
  fold potentiation of ceftazidime: 4 fold
HEK293 cells; HEK293, 600 μM
  cell viability at 600 μM compared to 4: lower in comparison to 4

## NC[C@H]1O[C@H](O[C@H]2[C@H](OCc3ccc(-c4ccccc4)cc3)[C@@H](O[C@H]3O[C@H](CO)[C@@H](O)[C@H](N)[C@H]3O)[C@H](N)C[C@@H]2N)[C@H](N)C[C@@H]1O [Compound 7, 5-O-(4-Methylbiphenyl)-tobramycin]
[1]; HEK293, up to 600 μM
  viability at 48 h, 600 µM: 86 to 101%
HEK293 cells
  cell viability compared to 1: comparable to 1

## N=C(N)NC[C@H]1O[C@H](O[C@H]2[C@H](OCc3ccc(-c4ccccc4)cc3)[C@@H](O[C@H]3O[C@H](CO)[C@@H](O)[C@H](NC(=N)N)[C@H]3O)[C@H](NC(=N)N)C[C@@H]2NC(=N)N)[C@H](NC(=N)N)C[C@@H]1O [Compound 8, 5-O-(4-Methylbiphenyl)-guanidinotobramycin]
P. aeruginosa PAO1 [2]
  active concentration: ~ 8 μg/mL
[3]
  MIC: > 128 µg/mL
[5]
  lowest concentration wherein synergy was observed: 8 µg/mL
PA 86052; 8 μg/mL of 8, ceftazidime 8 μg/mL, avibactam 2 μg/mL, within 8 hours
  log reduction in CFU/mL, triple combination: > 3 log
PA 86052; 8 with ceftazidime/avibactam
  time to bactericidal effect, triple combination: ≤ 8 h
PA 107092; 8 μg/mL of 8, ceftazidime 8 μg/mL, avibactam 2 μg/mL, at 4 hours
  log reduction in CFU/mL, triple combination: 3 log
P. aeruginosa PAO1 [4]
  fold potentiation of rifampicin: 64 fold
[1]; HEK293, 600 μM
  viability at 48 h, 600 µM: 79.8%
[1]; HEK293, active concentration 8 μg/mL, read-out: non-cytotoxic concentration (600 μM, 848.04 μg/mL) as multiple of active concentration
  selectivity ratio: ~106
HEK293 cells; HEK293
  cytotoxicity up to approximately 106 times the active concentration: non-cytotoxic
HEK293 cells; HEK293, 600 μM
  cytotoxicity compared to PMB: reduced cytotoxicity than PMB
HEK293 cells
  cell viability compared to non-guanidinylated counterpart: slight decrease in the cell viability

## COc1cccc2c1C(=O)c1c(O)c3c(c(O)c1C2=O)C[C@@](O)(C(=O)CO)C[C@@H]3O[C@H]1C[C@H](N)[C@H](O)[C@H](C)O1 [Doxorubicin, reference compound]
[1]; HEK293, 125 μM
  viability at 48 h, 125 µM: 0%

## C[C@H]1[C@H](NC(=O)/C(=N\OC(C)(C)C(=O)O)c2csc(N)n2)C(=O)N1S(=O)(=O)O [aztreonam]
[6]; five β-lactamase harboring strains, read-out: MIC of aztreonam monotherapy
  MIC: 32 to 128 µg/mL

## CC(C)(O/N=C(\C(=O)N[C@@H]1C(=O)N2C(C(=O)[O-])=C(C[n+]3ccccc3)CS[C@H]12)c1csc(N)n1)C(=O)O [ceftazidime, reference compound]
[6]; all five β-lactamase harboring strains, read-out: MIC of ceftazidime monotherapy
  MIC: 64 to 128 µg/mL
PA 86052; 8 μg/mL ceftazidime, 2 μg/mL avibactam
  antibacterial effect over 24 h: did not exhibit any antibacterial effect
PA 107092; 8 μg/mL ceftazidime
  antibacterial effect over 24 h, monotherapy: ineffective

## Polymyxin B [PMB, reference compound]
HEK293 cells; HEK293, 600 μM, 2880 min
  cell viability: 64.7%
